Patent US20090176817A1, “Method of Treatment of Diarrhea-Predominant Irritable Bowel Syndrome in a Subject” (priority 2005, published 2009)

How the values were obtained:
[1] = Study S.241.2.112: population pharmacokinetics (NONMEM) in IBS patients; assay type: in vivo, human; details: for predicted steady-state AUC(0-τ) / predicted steady-state Cmax: covariate population PK model, mean (SD); for Increase of apparent oral clearance per 1 mL/min creatinine clearance: population model; for half-life: both sexes
Method: The pharmacokinetics and pharmacodynamics of cilansetron following multiple oral administration in non-constipated IBS patients have been examined in a population pharmacokinetic (NONMEM) analysis of a Phase II trial. The study was a double-blind, placebo-controlled, randomized, multi-center, parallel-group, dose ranging study to investigate the Efficacy and safety of four different doses of cilansetron (1 mg, 2 mg, 8 mg, and 16 mg TID) in patients with established IBS (non-constipated patients who suffered from IBS according to the Rome Criteria and were not bothered by constipation for >25% of their IBS episodes). The study was to be performed in approximately 50 centers. A sufficient number of patients were to be recruited to insure that at least 88 patients per treatment group were evaluable for efficacy and to get a total of 440 completers. […] There were interim assessments at the end of the 4th week (Visit 3; Day 29) and 8th week (Visit 4; Day 57) and a final assessment at the end of the 12th week (Visit 5; poststudy). Single blood samples for population pharmacokinetic analyses were drawn at Visits 3, 4, 5 or early termination, at 31 of the participating sites. With the exception of Visit 3, the timing of the blood draw in relation to the previous dose was not specified for any of the samples collected, but the time of sampling and the time of last dosing was recorded for each sample collected. For Visit 3, the blood sample had to be taken between 15 minutes and 2 hours of the morning or midday dose.
Various covariates were screened during development of the population pharmacokinetic model, including age, height, weight, body surface area, body mass index, race, gender, smoking status, serum creatinine levels, serum creatinine clearance, total bilirubin levels, cilansetron dose, and concomitant medication usage. Some efficacy and safety parameters were also evaluated in this population analysis using correlation analyses. Efficacy parameters evaluated included overall relief of IBS symptoms (Responder or Non-Responder), intensity of abdominal pain, number of stools and stool consistency, symptoms of abdominal and rectal discomfort (straining, urgency, feeling of incomplete defecation, passage of mucus, bloating, and feeling of abdominal distension), and upper GI symptoms at Visit 5 (vomiting, heartburn, early satiety, postprandial fullness, sensation of prolonged digestion, and nausea). Safety parameters evaluated included the top ten most frequently observed adverse events (constipation, flatulence, nausea, abdominal pain, headache, dyspepsia, infection, gastrointestinal disorders, anorexia, and diarrhea).
The population analysis included data from 160 patients (63 males and 97 females) with a median age of 45.5 years (range: 20-81 years), median weight of 78 kg (range: 47-121 kg), and median height of 170 cm (range: 147-196 cm). More than 90% of the patients were White and 18.8% of the patients were considered smokers. […] A total of 392 quantifiable concentrations for cilansetron, 393 quantifiable concentrations for (4S)-hydroxy cilansetron, and 397 quantifiable concentrations for (4R)-hydroxy cilansetron from 160 patients were included in the NONMEM datasets for population analyses.
FIG. 54, FIG. 55, and FIG. 56 present mean steady-state plasma concentration-time profiles for cilansetron and its 4-hydroxy metabolites, and Table 2.7.2.3.29 and Table 2.7.2.3.30 present descriptive statistics for the estimated pharmacokinetic parameters of cilansetron and its 4-hydroxy metabolites from the final covariate population pharmacokinetic model. The cilansetron concentration data were best described by a one-compartment model with first-order input, an absorption lag time, and first-order elimination. A log-normal distribution was used to describe the variability of clearance, volume of distribution and absorption rate constant between patients. The residual error was best described by an exponential model. […]

[2] = Study S241.1.111: relative bioavailability and food effect, 2 mg tablet vs oral solution; assay type: in vivo, human; details: for AUC(0-t): AUC(0-last); for half-life: T½
Method: Subjects were randomized to receive a cilansetron 2 mg tablet after an overnight fast, a cilansetron 2 mg tablet after a high-fat breakfast, and a cilansetron 2 mg oral solution after an overnight fast during the three treatment periods, with a 7-day washout between periods. Serial blood sampling was performed up to 24 hours following each treatment, and plasma pharmacokinetics parameters for cilansetron and its metabolites, (4R)-hydroxy cilansetron and (4S)-hydroxy cilansetron, were estimated. FIG. 4, FIG. 5, and FIG. 6 present mean plasma concentration-time profiles for cilansetron and its metabolites following treatment with the cilansetron tablet and oral solution. Table 2.7.1.2.2 presents descriptive statistics for the pharmacokinetic parameters of cilansetron and its metabolites for the tablet and oral solution, and the results of statistical comparisons between treatments (tablet versus solution).
Subjects were randomized to receive a cilansetron 2 mg tablet after an overnight fast, a cilansetron 2 mg tablet after a high-fat breakfast, and a cilansetron 2 mg oral solution after an overnight fast during the three treatment periods, with a 7-day washout between periods. Serial blood sampling was performed up to 24 hours following each treatment and plasma pharmacokinetics parameters for cilansetron and its metabolites, (4R)-hydroxy cilansetron and (4S)-hydroxy cilansetron, were estimated. FIG. 7, FIG. 8, and FIG. 9 present mean plasma concentration-time profiles for cilansetron and its metabolites following treatment with the cilansetron tablet under fasted conditions and following a high-fat meal. Table 2.7.1.2.4 presents descriptive statistics for the pharmacokinetic parameters of cilansetron and its metabolites for the tablet under fed and fasted conditions, and the results of statistical comparisons between treatments (fed versus fasted).

[3] = cilansetron 1 mg TID, IBS patients, Bayesian estimates, population PK model, arith. mean
[4] = cilansetron 1 mg TID, IBS patients
[5] = cilansetron 2 mg TID, IBS patients, Bayesian estimates, population PK model, arith. mean
[6] = cilansetron 2 mg TID, IBS patients
[7] = cilansetron 8 mg TID, IBS patients, Bayesian estimates, population PK model, arith. mean
[8] = cilansetron 8 mg TID, IBS patients
[9] = cilansetron 16 mg TID, IBS patients, Bayesian estimates, population PK model, arith. mean
[10] = cilansetron 16 mg TID, IBS patients
[11] = 2 mg oral solution, fasted, median
[12] = 2 mg tablet, fasted, single dose
[13] = 2 mg tablet, fed (high-fat breakfast)
[14] = both sexes, human, in vivo, 2 mg
[15] = both sexes, human, in vivo, po, 2 mg

Cc1nccn1CC1CCc2c(c3cccc4c3n2CC[C@H]4O)C1=O (stereo partly drawn) [(4R)-hydroxy cilansetron]
CL/F [1, 3]: 234 L/h | T½ [1, 3]: 9.55 h | predicted steady-state AUC(0-τ) [1, 4]: 6.42 (1.40) ng · h/mL | predicted steady-state Cmax [1, 4]: 1.05 (0.19) ng/mL | CL/F [1, 5]: 232 L/h | T½ [1, 5]: 9.56 h | predicted steady-state AUC(0-τ) [1, 6]: 13.0 (2.64) ng · h/mL | predicted steady-state Cmax [1, 6]: 2.17 (0.37) ng/mL | CL/F [1, 7]: 229 L/h | T½ [1, 7]: 9.79 h | predicted steady-state AUC(0-τ) [1, 8]: 53.0 (10.1) ng · h/mL | predicted steady-state Cmax [1, 8]: 8.56 (1.70) ng/mL | CL/F [1, 9]: 232 L/h | T½ [1, 9]: 9.80 h | predicted steady-state AUC(0-τ) [1, 10]: 98.6 (18.8) ng · h/mL | predicted steady-state Cmax [1, 10]: 16.7 (3.0) ng/mL | Increase of apparent oral clearance per 1 mL/min creatinine clearance [1]: 0.447 L/h | AUC(0-inf) ([2]; 2 mg oral solution, fasted): 14.3 (26) ng · h/mL | AUC(0-last) ([2]; 2 mg oral solution, fasted): 13.5 (27) ng · h/mL | Cmax ([2]; 2 mg oral solution, fasted): 2.82 (26) ng/mL | T½ ([2]; 2 mg oral solution, fasted): 3.90 (19) h | Tmax [2, 11]: 1.00 h | AUC(0-inf) [2, 12]: 14.4 (25) ng · h/mL | AUC(0-last) [2, 12]: 13.7 (26) ng · h/mL | Cmax [2, 12]: 2.87 (20) ng/mL | T½ [2, 12]: 3.90 (22) h | Tmax ([2]; 2 mg tablet, fasted, median): 1.25 h | AUC(0-inf) ([2]; 2 mg tablet, fed): 13.6 (26) ng · h/mL | Cmax ([2]; 2 mg tablet, fed): 2.23 (26) ng/mL | T½ ([2]; 2 mg tablet, fed): 4.46 (31) h | AUC(0-last) [2, 13]: 12.8 (27) ng · h/mL | Tmax ([2]; 2 mg tablet, fed, median): 1.75 h

Cc1nccn1CC1CCc2c(c3cccc4c3n2CC[C@@H]4O)C1=O (stereo partly drawn) [(4S)-hydroxy cilansetron]
CL/F [1, 3]: 140 L/h | T½ [1, 3]: 5.42 h | predicted steady-state AUC(0-τ) [1, 4]: 3.85 (0.92) ng · h/mL | predicted steady-state Cmax [1, 4]: 0.546 (0.105) ng/mL | CL/F [1, 5]: 136 L/h | T½ [1, 5]: 5.55 h | predicted steady-state AUC(0-τ) [1, 6]: 7.68 (1.59) ng · h/mL | predicted steady-state Cmax [1, 6]: 1.10 (0.20) ng/mL | CL/F [1, 7]: 134 L/h | T½ [1, 7]: 5.64 h | predicted steady-state AUC(0-τ) [1, 8]: 31.6 (7.68) ng · h/mL | predicted steady-state Cmax [1, 8]: 4.46 (1.04) ng/mL | CL/F [1, 9]: 142 L/h | T½ [1, 9]: 5.31 h | predicted steady-state AUC(0-τ) [1, 10]: 63.2 (16.5) ng · h/mL | predicted steady-state Cmax [1, 10]: 9.03 (2.03) ng/mL | Increase of apparent oral clearance per 1 mL/min creatinine clearance [1]: 0.883 L/h | AUC(0-inf) ([2]; 2 mg oral solution, fasted): 7.20 (23) ng · h/mL | AUC(0-last) ([2]; 2 mg oral solution, fasted): 5.82 (24) ng · h/mL | Cmax ([2]; 2 mg oral solution, fasted): 0.607 (19) ng/mL | T½ ([2]; 2 mg oral solution, fasted): 7.13 (25) h | Tmax [2, 11]: 3.00 h | AUC(0-inf) [2, 12]: 7.31 (22) ng · h/mL | AUC(0-last) [2, 12]: 5.98 (22) ng · h/mL | Cmax [2, 12]: 0.637 (17) ng/mL | T½ [2, 12]: 7.26 (32) h | Tmax ([2]; 2 mg tablet, fasted, median): 3.00 h | AUC(0-inf) ([2]; 2 mg tablet, fed): 7.54 (19) ng · h/mL | Cmax ([2]; 2 mg tablet, fed): 0.602 (17) ng/mL | T½ ([2]; 2 mg tablet, fed): 7.94 (34) h | AUC(0-last) [2, 13]: 6.10 (19) ng · h/mL | Tmax ([2]; 2 mg tablet, fed, median): 4.00 h

Cc1nccn1C[C@H]1CCc2c(c3cccc4c3n2CCC4)C1=O [Cilansetron, (R)-(−)-4,5,6,8,9,10-hexahydro-10-[(2-methyl-1H-imidazol-1-yl)methyl]-11H-pyrido-[3,2,1-jk]-carbazol-11-one]
half-life ([1]; human, in vivo, 1 mg): 4.76 h | half-life ([1]; human, in vivo, 2 mg): 4.3 h | half-life ([1]; human, in vivo, 8 mg): 4.5 h | half-life ([1]; human, in vivo, 16 mg): 4.5 h | Apparent oral clearance decrease with concomitant medications ([1]; both, human, in vivo, po): 38.6% | Apparent oral clearance increase in smokers ([1]; both, human, in vivo, po): 32.2% | Increase of mean apparent oral clearance in smokers ([1]; both, human, in vivo, po): approximately 32% | CL/F ([1]; human, in vivo, 1 mg): 28.3 L/h | CL/F ([1]; human, in vivo, 2 mg): 34.1 L/h | CL/F ([1]; human, in vivo, 8 mg): 34.2 L/h | CL/F ([1]; human, in vivo, 16 mg): 37.3 L/h | AUC(0-inf) ([2]; both sexes, human, in vivo, 2 mg, AUC(0-inf)): 22.8 ng·h/mL | AUC(0-t) [2, 14]: 22.4 ng·h/mL | Cmax ([2]; both sexes, human, in vivo, 2 mg, Cmax): 8.24 ng/mL | Tmax ([2]; both sexes, human, in vivo, 2 mg, Tmax): 1 h | half-life [2, 14]: 1.42 h | AUC(0-inf) ([2]; both sexes, human, in vivo, po, 2 mg, AUC(0-inf)): 20.7 ng·h/mL | AUC(0-t) [2, 15]: 20.2 ng·h/mL | Cmax ([2]; both sexes, human, in vivo, po, 2 mg, Cmax): 7.55 ng/mL | Tmax ([2]; both sexes, human, in vivo, po, 2 mg, Tmax): 1 h | half-life [2, 15]: 1.48 h | Intrasubject % CV for AUC ([2]; both, human, in vivo): 19.2% | Intrasubject % CV for Cmax ([2]; both, human, in vivo): 24.5% | AUC(0-inf) increase under fed conditions ([2]; both, human, in vivo, 2 mg): 20% | AUC(0-inf) ratio fed/fasted ([2]; both, human, in vivo, 2 mg): 121% | Cmax ratio fed/fasted ([2]; both, human, in vivo, 2 mg): 101% | AUC(0-inf) ratio tablet/oral solution ([2]; both, human, in vivo, po): 99% | Cmax ratio tablet/oral solution ([2]; both, human, in vivo, po): 108%
